{"source": "patent US10670605B2", "about": "“Cysteine reactive probes and uses thereof” (The Scripps Research Institute, priority 2015, dated 2020)", "assay_in_all_cases": "Competitive isoTOP-ABPP, cell lysates;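 on isoTOP-ABPP reactivity profile ratio, P09211 C48: Heavy/light ratio DMSO over fragment-treated so higher means more cysteine engagement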;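 on isoTOP-ABPP reactivity profile ratio, P63244 C182: Heavy/light ratio DMSO over fragment-treated so higher means more cysteine engagement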;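 on isoTOP-ABPP reactivity profile ratio, Q15084 C190: Heavy/light ratio DMSO over fragment-treated so higher means more cysteine engagement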;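 on isoTOP-ABPP reactivity profile ratio, Q99873 C109: Heavy/light ratio DMSO over fragment-treated so higher means more cysteine engagement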", "type_in_all_cases": "binding", "key": {"GNB2L1 C182 (P63244)": {"molecular_target": "GNB2L1 C182 (P63244) (Homo sapiens, UniProt P63244)", "settings": "for isoTOP-ABPP ratio, P63244_C182: 500 μM, invitro; for isoTOP-ABPP reactivity profile ratio, P63244_C182: 500 μm, in-vitro_ramos_231"}, "GSTP1 C48 (P09211)": {"molecular_target": "GSTP1 C48 (P09211) (Homo sapiens, UniProt P09211)", "sequence (P09211 whole entry)": "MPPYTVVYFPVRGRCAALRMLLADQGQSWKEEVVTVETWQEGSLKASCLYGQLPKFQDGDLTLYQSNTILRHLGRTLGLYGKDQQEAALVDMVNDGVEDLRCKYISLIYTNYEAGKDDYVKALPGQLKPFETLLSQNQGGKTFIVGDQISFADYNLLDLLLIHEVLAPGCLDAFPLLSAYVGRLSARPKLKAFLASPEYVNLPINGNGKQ", "settings": "for isoTOP-ABPP ratio, P09211_C48: 500 μM, invitro; for isoTOP-ABPP reactivity profile ratio, P09211_C48: 500 μm, in-vitro_ramos_231"}, "MGMT C150 (P16455)": {"molecular_target": "T1, MGMT C150 (P16455) (Homo sapiens, UniProt P16455)", "T1 sequence (P16455 1-207)": "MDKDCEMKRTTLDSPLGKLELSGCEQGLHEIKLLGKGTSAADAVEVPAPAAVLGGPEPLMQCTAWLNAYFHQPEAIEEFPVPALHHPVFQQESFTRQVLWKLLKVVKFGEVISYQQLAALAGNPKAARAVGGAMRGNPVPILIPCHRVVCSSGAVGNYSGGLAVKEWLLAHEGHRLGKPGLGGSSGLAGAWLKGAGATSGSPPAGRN"}, "PDIA6 C190 (Q15084)": {"molecular_target": "T2, PDIA6 C190 (Q15084) (Homo sapiens, UniProt Q15084)", "T2 sequence (Q15084 20-440)": "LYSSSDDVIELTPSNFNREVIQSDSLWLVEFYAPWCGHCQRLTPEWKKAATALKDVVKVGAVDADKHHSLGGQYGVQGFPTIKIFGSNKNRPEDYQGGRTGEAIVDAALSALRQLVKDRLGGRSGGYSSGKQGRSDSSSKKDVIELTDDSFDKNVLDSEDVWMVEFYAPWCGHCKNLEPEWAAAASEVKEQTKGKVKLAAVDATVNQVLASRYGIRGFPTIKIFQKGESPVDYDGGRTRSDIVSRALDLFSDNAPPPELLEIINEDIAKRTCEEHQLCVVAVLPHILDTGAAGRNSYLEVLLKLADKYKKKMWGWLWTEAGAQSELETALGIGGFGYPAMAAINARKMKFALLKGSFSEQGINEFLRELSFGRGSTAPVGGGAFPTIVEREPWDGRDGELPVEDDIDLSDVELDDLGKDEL", "settings": "for isoTOP-ABPP ratio, Q15084_C190: 500 μM, invitro"}, "PRMT1 C109 (Q99873)": {"molecular_target": "PRMT1 C109 (Q99873) (Homo sapiens, UniProt Q99873)", "sequence (Q99873 whole entry)": "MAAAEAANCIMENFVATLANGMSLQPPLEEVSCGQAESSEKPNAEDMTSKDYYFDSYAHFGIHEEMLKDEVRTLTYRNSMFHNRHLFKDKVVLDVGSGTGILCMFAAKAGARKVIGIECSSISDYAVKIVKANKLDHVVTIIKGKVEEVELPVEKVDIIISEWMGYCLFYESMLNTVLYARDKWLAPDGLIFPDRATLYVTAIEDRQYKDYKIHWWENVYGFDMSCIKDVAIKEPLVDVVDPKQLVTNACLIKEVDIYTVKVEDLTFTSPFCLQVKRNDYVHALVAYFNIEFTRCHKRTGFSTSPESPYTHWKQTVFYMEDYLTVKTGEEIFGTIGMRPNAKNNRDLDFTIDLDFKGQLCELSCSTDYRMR", "settings": "for isoTOP-ABPP ratio, Q99873_C109: 500 μM, invitro; for isoTOP-ABPP reactivity profile ratio, Q99873_C109: 500 μm, in-vitro_ramos_231"}, "XPO1 C34 (O14980)": {"molecular_target": "XPO1 C34 (O14980) (Homo sapiens, UniProt O14980)", "sequence (O14980 whole entry)": "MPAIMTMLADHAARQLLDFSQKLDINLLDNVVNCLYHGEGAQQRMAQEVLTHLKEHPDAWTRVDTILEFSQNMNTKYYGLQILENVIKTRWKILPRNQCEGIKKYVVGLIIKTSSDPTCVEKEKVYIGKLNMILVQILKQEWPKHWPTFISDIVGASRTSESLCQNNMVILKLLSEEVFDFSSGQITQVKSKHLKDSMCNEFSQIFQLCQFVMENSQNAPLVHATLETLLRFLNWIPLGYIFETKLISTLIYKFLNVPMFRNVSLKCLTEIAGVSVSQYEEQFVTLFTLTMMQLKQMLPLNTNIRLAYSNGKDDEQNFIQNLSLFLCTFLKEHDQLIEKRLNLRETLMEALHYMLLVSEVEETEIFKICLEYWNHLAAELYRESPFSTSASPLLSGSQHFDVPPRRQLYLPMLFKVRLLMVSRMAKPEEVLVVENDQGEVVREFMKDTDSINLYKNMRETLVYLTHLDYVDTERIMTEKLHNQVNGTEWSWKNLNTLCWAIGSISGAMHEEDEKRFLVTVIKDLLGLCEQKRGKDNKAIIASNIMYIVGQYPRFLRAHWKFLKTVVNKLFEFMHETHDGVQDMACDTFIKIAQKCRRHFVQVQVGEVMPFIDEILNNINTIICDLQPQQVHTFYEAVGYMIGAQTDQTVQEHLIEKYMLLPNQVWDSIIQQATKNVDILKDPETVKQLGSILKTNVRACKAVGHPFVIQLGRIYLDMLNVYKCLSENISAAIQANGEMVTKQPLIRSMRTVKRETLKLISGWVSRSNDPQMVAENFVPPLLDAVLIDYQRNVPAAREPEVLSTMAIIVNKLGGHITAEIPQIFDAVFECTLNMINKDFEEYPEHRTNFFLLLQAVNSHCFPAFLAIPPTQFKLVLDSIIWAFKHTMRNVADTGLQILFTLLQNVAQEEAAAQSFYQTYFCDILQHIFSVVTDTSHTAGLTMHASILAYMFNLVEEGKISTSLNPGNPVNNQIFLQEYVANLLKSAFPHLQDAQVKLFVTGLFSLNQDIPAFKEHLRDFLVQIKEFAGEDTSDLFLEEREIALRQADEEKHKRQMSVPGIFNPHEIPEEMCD", "settings": "for isoTOP-ABPP ratio, O14980_C34: 500 μM, invitro; for isoTOP-ABPP reactivity profile ratio, O14980_C34: 500 μm, in-vitro_ramos_231"}, "ZNF217 C286 (O75362)": {"molecular_target": "ZNF217 C286 (O75362) (Homo sapiens, UniProt O75362)", "sequence (O75362 whole entry)": "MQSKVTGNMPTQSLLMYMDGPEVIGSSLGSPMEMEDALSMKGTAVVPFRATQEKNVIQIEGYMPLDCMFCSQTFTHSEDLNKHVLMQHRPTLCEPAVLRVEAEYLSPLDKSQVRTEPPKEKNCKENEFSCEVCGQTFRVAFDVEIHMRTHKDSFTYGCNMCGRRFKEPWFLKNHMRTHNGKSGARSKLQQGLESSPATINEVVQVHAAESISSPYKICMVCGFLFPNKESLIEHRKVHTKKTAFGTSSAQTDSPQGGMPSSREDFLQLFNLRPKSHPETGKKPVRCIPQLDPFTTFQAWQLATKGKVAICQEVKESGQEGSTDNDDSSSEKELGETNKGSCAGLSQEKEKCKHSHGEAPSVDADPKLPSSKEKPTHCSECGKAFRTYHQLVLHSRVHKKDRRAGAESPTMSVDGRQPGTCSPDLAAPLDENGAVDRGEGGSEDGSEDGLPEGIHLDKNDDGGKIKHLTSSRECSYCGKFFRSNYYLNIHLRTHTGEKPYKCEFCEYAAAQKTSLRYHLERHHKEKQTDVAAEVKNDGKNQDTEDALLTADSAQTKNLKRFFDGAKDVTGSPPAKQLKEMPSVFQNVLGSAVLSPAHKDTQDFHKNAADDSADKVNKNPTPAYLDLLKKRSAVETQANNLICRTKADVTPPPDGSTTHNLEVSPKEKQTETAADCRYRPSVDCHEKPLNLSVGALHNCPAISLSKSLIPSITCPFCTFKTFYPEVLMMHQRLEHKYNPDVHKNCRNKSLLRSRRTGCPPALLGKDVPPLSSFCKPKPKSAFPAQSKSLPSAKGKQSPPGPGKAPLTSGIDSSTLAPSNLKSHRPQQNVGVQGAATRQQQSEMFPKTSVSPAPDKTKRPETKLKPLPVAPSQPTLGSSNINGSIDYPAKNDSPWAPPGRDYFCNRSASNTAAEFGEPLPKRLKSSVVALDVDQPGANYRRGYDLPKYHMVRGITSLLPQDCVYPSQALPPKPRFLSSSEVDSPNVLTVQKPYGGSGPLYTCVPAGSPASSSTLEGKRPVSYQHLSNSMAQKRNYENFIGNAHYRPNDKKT", "settings": "for isoTOP-ABPP reactivity profile ratio, O75362_C286: 500 μm, in-vitro_ramos_231"}}, "data": [{"smiles": "C=CC(=O)N(c1ccccc1)c1ccc(Br)cc1", "note": "[compound 5]", "values": [{"measurement": "isoTOP-ABPP ratio, P63244_C182", "setting": "GNB2L1 C182 (P63244); 231", "result": 1.5}, {"measurement": "isoTOP-ABPP ratio, P63244_C182", "setting": "GNB2L1 C182 (P63244); ramos", "result": 1.4}, {"measurement": "isoTOP-ABPP ratio, P09211_C48", "setting": "GSTP1 C48 (P09211); 231", "result": 2.2}, {"measurement": "isoTOP-ABPP ratio, P09211_C48", "setting": "GSTP1 C48 (P09211); ramos", "result": 2.4}, {"measurement": "isoTOP-ABPP ratio, P16455_C150", "setting": "MGMT C150 (P16455); 500 μM, invitro, ramos", "result": 9.6}, {"measurement": "isoTOP-ABPP ratio, Q15084_C190", "setting": "PDIA6 C190 (Q15084); ramos", "result": 1.7}, {"measurement": "isoTOP-ABPP ratio, Q99873_C109", "setting": "PRMT1 C109 (Q99873); 231", "result": 0.9}, {"measurement": "isoTOP-ABPP ratio, Q99873_C109", "setting": "PRMT1 C109 (Q99873); ramos", "result": 1.3}, {"measurement": "isoTOP-ABPP ratio, O14980_C34", "setting": "XPO1 C34 (O14980); 231", "result": 1.1}, {"measurement": "isoTOP-ABPP ratio, O14980_C34", "setting": "XPO1 C34 (O14980); ramos", "result": 1.2}]}, {"smiles": "CC1CCc2ccccc2N1C(=O)CCl", "note": "(centres unmarked) [compound 45]", "values": [{"measurement": "isoTOP-ABPP reactivity profile ratio, P63244_C182", "setting": "GNB2L1 C182 (P63244)", "result": 0.9}, {"measurement": "isoTOP-ABPP reactivity profile ratio, P09211_C48", "setting": "GSTP1 C48 (P09211)", "result": 19.7}, {"measurement": "isoTOP-ABPP reactivity profile ratio, Q99873_C109", "setting": "PRMT1 C109 (Q99873)", "result": 2.2}, {"measurement": "isoTOP-ABPP reactivity profile ratio, O14980_C34", "setting": "XPO1 C34 (O14980)", "result": 1.8}, {"measurement": "isoTOP-ABPP reactivity profile ratio, O75362_C286", "setting": "ZNF217 C286 (O75362)", "result": 20.0}]}, {"smiles": "C=CC(=O)N(c1ccccc1)C1CCCCC1", "note": "[compound 46]", "values": [{"measurement": "isoTOP-ABPP reactivity profile ratio, P63244_C182", "setting": "GNB2L1 C182 (P63244)", "result": 0.8}, {"measurement": "isoTOP-ABPP reactivity profile ratio, P09211_C48", "setting": "GSTP1 C48 (P09211)", "result": 1.0}, {"measurement": "isoTOP-ABPP reactivity profile ratio, Q15084_C190", "setting": "PDIA6 C190 (Q15084); 500 μm, in-vitro_ramos_231", "result": 0.9}, {"measurement": "isoTOP-ABPP reactivity profile ratio, Q99873_C109", "setting": "PRMT1 C109 (Q99873)", "result": 0.8}, {"measurement": "isoTOP-ABPP reactivity profile ratio, O14980_C34", "setting": "XPO1 C34 (O14980)", "result": 1.0}, {"measurement": "isoTOP-ABPP reactivity profile ratio, O75362_C286", "setting": "ZNF217 C286 (O75362)", "result": 0.9}]}, {"smiles": "CNS(=O)(=O)C=Cc1ccc2c(ccn2Cc2ccccc2)c1", "note": "[compound 6]", "values": [{"measurement": "isoTOP-ABPP ratio, P63244_C182", "setting": "GNB2L1 C182 (P63244); 231", "result": 1.5}, {"measurement": "isoTOP-ABPP ratio, P09211_C48", "setting": "GSTP1 C48 (P09211); 231", "result": 1.2}, {"measurement": "isoTOP-ABPP ratio, Q15084_C190", "setting": "PDIA6 C190 (Q15084); 231", "result": 1.1}, {"measurement": "isoTOP-ABPP ratio, Q99873_C109", "setting": "PRMT1 C109 (Q99873); 231", "result": 1.1}, {"measurement": "isoTOP-ABPP ratio, O14980_C34", "setting": "XPO1 C34 (O14980); 231", "result": 1.2}, {"measurement": "isoTOP-ABPP ratio O75362_C286", "setting": "ZNF217 C286 (O75362); 500 μM, invitro, 231", "result": 0.9}]}, {"smiles": "O=C(CCl)N1CCN(CC(=O)N2CCOCC2)CC1", "note": "[compound 29]", "values": [{"measurement": "isoTOP-ABPP ratio (reactivity profile), P63244_C182", "setting": "GNB2L1 C182 (P63244); 500 μm in-vitro ramos", "result": 1.2}, {"measurement": "isoTOP-ABPP ratio (reactivity profile), P63244_C182", "setting": "GNB2L1 C182 (P63244); 500 μm in-vitro ramos_231", "result": 1.3}, {"measurement": "isoTOP-ABPP ratio (reactivity profile), P09211_C48", "setting": "GSTP1 C48 (P09211); 500 μm in-vitro ramos", "result": 0.4}, {"measurement": "isoTOP-ABPP ratio (reactivity profile), P09211_C48", "setting": "GSTP1 C48 (P09211); 500 μm in-vitro ramos_231", "result": 1.0}, {"measurement": "isoTOP-ABPP ratio (reactivity profile), P16455_C150", "setting": "MGMT C150 (P16455); 500 μm in-vitro ramos", "result": 1.3}, {"measurement": "isoTOP-ABPP ratio (reactivity profile), Q15084_C190", "setting": "PDIA6 C190 (Q15084); 500 μm in-vitro ramos_231", "result": 1.2}, {"measurement": "isoTOP-ABPP ratio (reactivity profile), Q99873_C109", "setting": "PRMT1 C109 (Q99873); 500 μm in-vitro ramos", "result": 0.9}, {"measurement": "isoTOP-ABPP ratio (reactivity profile), Q99873_C109", "setting": "PRMT1 C109 (Q99873); 500 μm in-vitro ramos_231", "result": 1.0}, {"measurement": "isoTOP-ABPP ratio (reactivity profile), O14980_C34", "setting": "XPO1 C34 (O14980); 500 μm in-vitro ramos", "result": 0.9}, {"measurement": "isoTOP-ABPP ratio (reactivity profile), O14980_C34", "setting": "XPO1 C34 (O14980); 500 μm in-vitro ramos_231", "result": 1.3}, {"measurement": "isoTOP-ABPP ratio (reactivity profile), O75362_C286", "setting": "ZNF217 C286 (O75362); 500 μm in-vitro ramos_231", "result": 0.9}]}]}
